Assay results reported in patent US12247004B2, “2-amino-N-(amino-oxo-aryl-lambda6-sulfanylidene)acetamide compounds and their therapeutic use” (Oxford Drug Design Limited, priority 2019, dated 2025).
Converted amounts (≈) assume the structure as drawn. Like-named read-outs stand apart in the source and are kept apart here.

Tests used:
[1] = target: Isoleucyl-tRNA synthetase (IleRS) (Escherichia coli (strain K12), UniProt P00956); assay: Isoleucyl-tRNA synthetase enzyme inhibition (AMP-Glo; single point % inhibition at 100 μM and IC50); assay type: biochemical
Isoleucyl-tRNA synthetase (IleRS), sequence (P00956 whole entry, looked up): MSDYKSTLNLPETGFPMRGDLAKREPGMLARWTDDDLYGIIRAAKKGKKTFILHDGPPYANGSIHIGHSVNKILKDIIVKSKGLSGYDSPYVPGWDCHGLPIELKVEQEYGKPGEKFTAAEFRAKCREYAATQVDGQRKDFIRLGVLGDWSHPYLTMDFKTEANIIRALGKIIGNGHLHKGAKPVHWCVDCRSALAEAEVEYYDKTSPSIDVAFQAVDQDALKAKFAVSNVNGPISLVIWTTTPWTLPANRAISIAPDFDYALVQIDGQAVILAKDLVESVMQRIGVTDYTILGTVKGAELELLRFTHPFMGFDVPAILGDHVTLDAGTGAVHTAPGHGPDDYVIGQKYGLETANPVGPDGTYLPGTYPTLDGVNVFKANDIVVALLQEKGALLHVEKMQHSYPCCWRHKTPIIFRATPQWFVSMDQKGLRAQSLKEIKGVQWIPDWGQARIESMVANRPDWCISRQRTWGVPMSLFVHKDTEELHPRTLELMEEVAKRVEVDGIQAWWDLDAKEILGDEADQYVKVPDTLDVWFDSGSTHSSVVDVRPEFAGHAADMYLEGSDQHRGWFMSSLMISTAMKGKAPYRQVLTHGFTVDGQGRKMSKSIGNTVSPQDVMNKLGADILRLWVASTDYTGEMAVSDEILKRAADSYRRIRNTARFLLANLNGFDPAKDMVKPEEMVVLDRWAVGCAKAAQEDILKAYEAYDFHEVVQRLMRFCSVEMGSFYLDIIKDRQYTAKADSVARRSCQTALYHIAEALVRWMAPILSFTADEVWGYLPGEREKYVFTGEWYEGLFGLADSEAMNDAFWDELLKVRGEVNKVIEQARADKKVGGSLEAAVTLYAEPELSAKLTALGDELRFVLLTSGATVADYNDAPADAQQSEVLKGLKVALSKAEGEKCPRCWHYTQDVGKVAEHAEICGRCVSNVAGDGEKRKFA
Excerpt: Study 1—Enzyme Inhibition
The aminoacylation reaction catalyzed by aminoacyl-tRNA synthetases (aaRS) takes place in two steps. In the first step, aaRS activates its cognate amino acid with ATP; and in the second step the activated amino acid is loaded to its corresponding tRNA. This reaction can be summarized as follows: aaRS+aa+ATP=aaRS-aa-AMP+PPi aaRS-aa-AMP+tRNA=aa-tRNA+AMP+aaRS […]
wherein: aaRS, aminoacyl-tRNA synthetase; aa, amino acid; aaRS-aa-AMP, enzyme-bound to aminoacyl-adenylate; AMP, adenosine monophosphate; aa-tRNA, aminoacyl-tRNA, PPi, inorganic pyrophosphate.
Isoleucyl-tRNA Synthetase a. Single Point Percentage Inhibition
The activity of the pathogenic aaRSs was monitored by measuring AMP production using the commercial kit AMP-Glo (Promega, Madison, USA).
Ligand stock solutions were prepared in 100% DMSO at 10 mM concentration. An assay buffer consisting of 100 mM Tris HCl pH 7.6, 40 mM MgCl, 20 mM KCl and 150 mM NaCl was prepared in dH2O. An enzyme solution containing 51.77 μM IleRS was prepared in assay buffer to provide 30 nM final assay concentration and 75 nM reservoir concentration for a 1:2.5 dilution in the assay. A substrate solution was also prepared in assay buffer with 50 mM L-isoleucine, 10 mM ATP and 100 mg/mL tRNA. A final assay concentration of 500 μM L-isoleucine, 5 μM ATP and 1 mg/mL tRNA and reservoir concentration of 833.33 μM L-isoleucine, 8.33 μM ATP and 1.67 mg/mL tRNA was used for a 1:1.66 dilution in assay.
Enzyme percentage inhibition values were recorded in triplicate at a single point concentration of 100 μM.
Using the same enzymatic assay in a 384-well plate format, ten point concentration response curves were generated for each compound using a top concentration of 100 μM. The known inhibitor, IleAMS was used as a positive control for the IleRS assay. 100% DMSO was used as a negative control. The IC50 was calculated based on non-linear regression analysis.

[2] = Human cell viability / cytotoxicity (CellTiter-Glo, 24 hours); assay type: cell-based; settings: human, HepG2 cells (ATCC HB-8065); HepG2 ATCC HB-8065, 24 hours; read-out: Cytotoxicity in HepG2 ATCC HB-8065 Cell Line, IC50
In short: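 HepG2 cells (15,000/well, MEM with 1% NEAA and 1% pyruvate) were grown 2 days, then exposed to compounds in duplicate for 24 h at 1.28% DMSO. Viability was read as ATP by CellTiter-Glo luminescence relative to DMSO-only wells. IC50 is in μg/mL.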

[3] = test system: bacteria (ATCC reference strains); assay: Antibacterial activity, MIC by broth micro-dilution (CLSI)
[4] = target: Leucyl-tRNA synthetase (LeuRS) (Escherichia coli (strain K12), UniProt P07813); assay: Leucyl-tRNA synthetase enzyme inhibition (AMP-Glo; single point % inhibition at 100 μM and IC50); assay type: biochemical
Leucyl-tRNA synthetase (LeuRS), sequence (P07813 whole entry, looked up): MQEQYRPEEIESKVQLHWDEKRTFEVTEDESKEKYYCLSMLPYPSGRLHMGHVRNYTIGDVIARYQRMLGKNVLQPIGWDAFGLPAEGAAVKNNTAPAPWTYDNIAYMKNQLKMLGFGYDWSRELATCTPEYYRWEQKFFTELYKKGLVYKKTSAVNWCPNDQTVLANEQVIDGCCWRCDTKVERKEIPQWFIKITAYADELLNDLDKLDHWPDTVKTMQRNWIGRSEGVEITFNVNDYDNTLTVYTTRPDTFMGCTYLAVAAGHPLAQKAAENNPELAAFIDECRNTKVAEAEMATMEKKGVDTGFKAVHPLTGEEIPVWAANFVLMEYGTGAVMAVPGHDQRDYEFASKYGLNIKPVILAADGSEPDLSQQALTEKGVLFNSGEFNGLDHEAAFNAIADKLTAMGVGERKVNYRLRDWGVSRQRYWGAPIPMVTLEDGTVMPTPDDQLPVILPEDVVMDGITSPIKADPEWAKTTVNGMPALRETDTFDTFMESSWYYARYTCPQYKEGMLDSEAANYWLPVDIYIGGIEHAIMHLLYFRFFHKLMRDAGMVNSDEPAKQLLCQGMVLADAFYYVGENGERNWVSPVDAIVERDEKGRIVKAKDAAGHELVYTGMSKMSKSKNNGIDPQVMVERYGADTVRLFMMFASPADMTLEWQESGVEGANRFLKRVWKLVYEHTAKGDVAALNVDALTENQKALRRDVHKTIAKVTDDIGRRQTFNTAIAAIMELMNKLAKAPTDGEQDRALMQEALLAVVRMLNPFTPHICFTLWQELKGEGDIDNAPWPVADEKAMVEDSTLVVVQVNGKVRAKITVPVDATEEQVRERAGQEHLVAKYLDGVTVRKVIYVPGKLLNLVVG

[5] = E. coli IleRS, read-out: Enzyme Inhibition - IC50, E. coli IleRS
[6] = Acinetobacter baumannii, read-out: Antibacterial Activity (MIC), E = A. baumannii B1931
[7] = Enterobacter cloacae, read-out: Antibacterial Activity (MIC), B = Enterobacter cloacae B1966
[8] = Escherichia coli, ATCC25922, read-out: Antibacterial Activity (MIC), A = E. coli ATCC 25922
[9] = Haemophilus influenzae, ATCC49247, read-out: Antibacterial Activity (MIC), F = H. influenzae ATCC 49247
[10] = Klebsiella pneumoniae, ATCC700603, read-out: Antibacterial Activity (MIC), C = K. pneumoniae ATCC 700603
[11] = Pseudomonas aeruginosa, ATCC27853, read-out: Antibacterial Activity (MIC), D = P. aeruginosa ATCC 27853

## CC[C@H](C)[C@H](N)C(=O)N=[S@](N)(=O)c1ccc2c(c1)OCO2 [ANASIA-115-1]
[1]; [5]
  IC50: 4.7 µM

## CC[C@H](C)[C@H](N)C(=O)N=[S@@](N)(=O)c1cccc(OC(F)F)c1 [ANASIA-069-2]
[1]; [5]
  IC50: 13.7 µM

## CC[C@H](C)[C@H](N)C(=O)N=S(N)(=O)c1ccc(C)s1 (stereo partly drawn) [ANASIA-031]
[2]
  IC50 at 24 h: > 64 µg/mL
[1]; [5]
  IC50: 6.7 µM
[3]; [6]
  MIC: > 64 µg/mL
[3]; [7]
  MIC: > 64 µg/mL
[3]; [8]
  MIC: > 64 µg/mL
[3]; [9]
  MIC: 64 µg/mL (≈ 221 µM)
[3]; [10]
  MIC: > 64 µg/mL
[3]; [11]
  MIC: > 64 µg/mL

## CC[C@H](C)[C@H](N)C(=O)N=[S@@](N)(=O)c1cscc1C.Cl [ANASIA-079-2]
[1]; [5]
  IC50: 0.372 µM
[3]; [8]
  MIC: 64 µg/mL

## CC[C@H](C)[C@H](N)C(=O)N=[S@](N)(=O)c1cccc(-c2ccccc2)c1 [ANASIA-032-1]
[1]; [5]
  IC50: 50.8 µM

## CC[C@H](C)[C@H](N)C(=O)N=[S@](N)(=O)c1cccc(Cl)c1 [ANASIA-033-1]
[1]; [5]
  IC50: 67.6 µM

## CC1CCC(N)(C(=O)N=S(N)(=O)c2ccccc2)C1 (stereo not drawn) [ANASIA-123]
[4]; E. coli LeuRS, read-out: Enzyme Inhibition - IC50, E. coli LeuRS
  IC50: 4.87 µM
[1]; [5]
  IC50: > 100 µM

## CC[C@H](C)[C@H](N)C(=O)N=[S@](N)(=O)c1ccc(C)cc1.Cl [ANASIA-034-1]
[2]
  IC50 at 24 h: > 64 µg/mL
[1]
  IC50: 14.7 µM
[3]; [6]
  MIC: > 64 µg/mL
[3]; [7]
  MIC: > 64 µg/mL
[3]; [8]
  MIC: > 64 µg/mL
[3]; [9]
  MIC: 64 µg/mL
[3]; [10]
  MIC: > 64 µg/mL
[3]; [11]
  MIC: > 64 µg/mL

## CC[C@H](C)[C@H](N)C(=O)N=[S@](N)(=O)c1ccc(Cl)cc1 [ANASIA-035-1]
[2]
  IC50 at 24 h: > 64 µg/mL
[1]
  IC50: 18.3 µM

## CC[C@H](C)[C@H](N)C(=O)N=[S@](N)(=O)c1cccc(Oc2ccc(Cl)cc2)c1 [ANASIA-052-1]
[2]
  IC50 at 24 h: > 64 µg/mL
[1]
  IC50: 37.7 µM

## CC[C@H](C)[C@H](N)C(=O)N=[S@@](N)(=O)c1cccc(Oc2ccc(Cl)cc2)c1 [ANASIA-052-2]
[1]; [5]
  IC50: 40.1 µM

## CC[C@H](C)[C@H](N)C(=O)N=[S@](N)(=O)c1scc(Br)c1Br [ANASIA-116-1]
[1]; [5]
  IC50: 3.83 µM

## CC[C@H](C)[C@H](N)C(=O)N=[S@](N)(=O)c1ccc(OC)cc1 [ANASIA-055-1]
[1]; [5]
  IC50: 35.1 µM

## CC[C@H](C)[C@H](N)C(=O)N=[S@@](N)(=O)c1csc(Cl)c1 [ANASIA-080-2]
[1]; [5]
  IC50: 41.3 µM

## CC[C@H](C)[C@H](N)C(=O)N=[S@@](N)(=O)c1scc(Br)c1Br [ANASIA-116-2]
[1]; [5]
  IC50: 0.95 µM

## CC[C@H](C)[C@H](N)C(=O)N=[S@](N)(=O)c1ccc2cccnc2c1 [ANASIA-054-1]
[1]; [5]
  IC50: 83.7 µM

## CC[C@H](C)[C@H](N)C(=O)N=[S@@](N)(=O)c1ccc(Cl)c(Cl)c1 [ANASIA-036-2]
[1]; [5]
  IC50: 30.6 µM

## CC[C@H](C)[C@H](N)C(=O)N=[S@@](N)(=O)c1ccc(Cl)s1.Cl [ANASIA-029-2]
[2]
  IC50 at 24 h: > 64 µg/mL
[1]; [5]
  IC50: 4.59 µM
[3]; [6]
  MIC: > 64 µg/mL
[3]; [7]
  MIC: > 64 µg/mL
[3]; [8]
  MIC: 64 µg/mL
[3]; [9]
  MIC: 16 µg/mL
[3]; [10]
  MIC: > 64 µg/mL
[3]; [11]
  MIC: > 64 µg/mL

## CC[C@H](C)[C@H](N)C(=O)N=[S@](N)(=O)c1ccc(Cl)s1 [ANASIA-029-1]
[1]; [5]
  IC50: 67.4 µM

## CC[C@H](C)[C@H](N)C(=O)N=[S@@](N)(=O)c1ccc2c(c1)CCO2 [ANASIA-053-1]
[1]; [5]
  IC50: 20.2 µM

## CC[C@H](C)[C@H](N)C(=O)N=[S@@](N)(=O)c1ccc(Cl)cc1.Cl [ANASIA-035-2]
[2]
  IC50 at 24 h: > 64 µg/mL
[1]; [5]
  IC50: 4.65 µM
[3]; [6]
  MIC: > 64 µg/mL
[3]; [7]
  MIC: > 64 µg/mL
[3]; [8]
  MIC: > 64 µg/mL
[3]; [9]
  MIC: 64 µg/mL
[3]; [10]
  MIC: > 64 µg/mL
[3]; [11]
  MIC: > 64 µg/mL

## CC[C@H](C)[C@H](N)C(=O)N=[S@](N)(=O)c1csc(Cl)c1 [ANASIA-080-1]
[1]; [5]
  IC50: 1.14 µM

## CC[C@H](C)[C@H](N)C(=O)N=[S@](N)(=O)c1cccc(C(C)(C)C)c1 [ANASIA-056-1]
[1]; [5]
  IC50: 84 µM

## CC[C@H](C)[C@H](N)C(=O)N=S(N)(=O)c1cc2ccccc2s1 (stereo partly drawn) [ANASIA-037]
[2]
  IC50 at 24 h: > 64 µg/mL
[1]; [5]
  IC50: 2.74 µM
[3]; [6]
  MIC: > 64 µg/mL
[3]; [7]
  MIC: > 64 µg/mL
[3]; [8]
  MIC: > 64 µg/mL
[3]; [9]
  MIC: 32 µg/mL (≈ 98.3 µM)
[3]; [10]
  MIC: > 64 µg/mL
[3]; [11]
  MIC: > 64 µg/mL

## CC[C@H](C)[C@H](N)C(=O)N=[S@](N)(=O)c1ccc(Cl)c(Cl)c1 [ANASIA-036-1]
[2]
  IC50 at 24 h: > 64 µg/mL
[1]
  IC50: 7.86 µM

## CC[C@H](C)[C@H](N)C(=O)N=[S@](N)(=O)c1cccs1 (single isomer, unassigned) [ANASIA-028-1]
[1]; [5]
  IC50: 46.5 µM

## CC[C@H](C)[C@H](N)C(=O)N=S(N)(=O)c1ccc(C(F)F)s1 (stereo partly drawn) [ANASIA-038]
[2]
  IC50 at 24 h: > 64 µg/mL
[1]; [5]
  IC50: 15.8 µM
[3]; [6]
  MIC: > 64 µg/mL
[3]; [7]
  MIC: > 64 µg/mL
[3]; [8]
  MIC: > 64 µg/mL
[3]; [9]
  MIC: 64 µg/mL (≈ 197 µM)
[3]; [10]
  MIC: > 64 µg/mL
[3]; [11]
  MIC: > 64 µg/mL

## CC[C@H](C)[C@H](N)C(=O)N=[S@](N)(=O)c1cccc(C(F)(F)F)c1 [ANASIA-072-1]
[1]; [5]
  IC50: 53.1 µM

## CC[C@H](C)[C@H](N)C(=O)N=[S@@](N)(=O)c1ccc(C)s1.Cl [ANASIA-031-2]
[2]
  IC50 at 24 h: > 64 µg/mL
[1]; [5]
  IC50: 2.65 µM
[3]; [6]
  MIC: > 64 µg/mL
[3]; [7]
  MIC: 64 µg/mL
[3]; [8]
  MIC: 64 µg/mL
[3]; [9]
  MIC: 16 µg/mL
[3]; [10]
  MIC: > 64 µg/mL
[3]; [11]
  MIC: > 64 µg/mL

## CC[C@H](C)[C@H](N)C(=O)N=[S@](N)(=O)c1cscc1C [ANASIA-079-1]
[1]; [5]
  IC50: 19.8 µM

## CC[C@H](C)[C@H](N)C(=O)N=[S@](N)(=O)c1csc2ccccc12 [ANASIA-057-1]
[1]; [5]
  IC50: 27.5 µM

## CC[C@H](C)[C@H](N)C(=O)N=[S@](N)(=O)c1ccsc1Cl [ANASIA-078-1]
[1]; [5]
  IC50: 16.4 µM

## CC[C@H](C)[C@H](N)C(=O)N=[S@@](N)(=O)c1ccsc1Cl [ANASIA-078-2]
[1]; [5]
  IC50: 0.599 µM

## CC[C@H](C)[C@H](N)C(=O)N=[S@@](N)(=O)c1ccc2cccnc2c1 [ANASIA-054-2]
[1]; [5]
  IC50: 19.9 µM

## CC[C@H](C)[C@H](N)C(=O)N=S(N)(=O)c1nc(Cl)cs1 (stereo partly drawn) [ANASIA-058]
[1]; [5]
  IC50: 58.6 µM

## CC[C@H](C)[C@H](N)C(=O)N=S(N)(=O)c1csc2ccsc12 (stereo partly drawn) [ANASIA-084]
[1]; [5]
  IC50: 2.82 µM

## CC(C)C[C@H](N)C(=O)N=[S@](N)(=O)c1ccsc1Cl.Cl [ANASIA-092-1]
[2]
  IC50 at 24 h: > 64 µg/mL
[4]
  IC50: 0.0484 µM
[3]; [6]
  MIC: 64 µg/mL
[3]; [8]
  MIC: 2 µg/mL
[3]; Escherichia coli, BAA2469, read-out: Antibacterial Activity (MIC), G = E. coli BAA-2469
  MIC: 11.3 µg/mL
[3]; [9]
  MIC: 2 µg/mL
[3]; [10]
  MIC: 64 µg/mL
[3]; [11]
  MIC: > 64 µg/mL

## CC[C@H](C)[C@H](N)C(=O)N=[S@](N)(=O)c1cccc(OC(F)(F)F)c1 [ANASIA-077-1]
[1]; [5]
  IC50: 40.8 µM
